Patent US10183931B2, “Rho kinase inhibitors” (priority 2012, dated 2019)
“Also recorded” adds a separate entry of the source.

Legend:
ROCK2 = ROCK2 (Homo sapiens (Human), UniProt O75116); details: read-out: ROCK2 IC50; Z′-LYTE, 12 uM ATP
Excerpt: (§1) Dose response curves for Rho-kinase inhibition were derived from a Invitrogen Z′-LYTE™ Kinase Assay Kit (Invitrogen catalog number PV3793). Purified active ROCK1 and ROCK2 were obtained from Invitrogen (catalog numbers ROCK1, PV3691 and ROCK2, PV3759). The kit components include a coumarin and fluorescein labeled peptide based on myosin light chain 2 ([sequence]), a proprietary protease containing development reagent and a proprietary Stop buffer used to terminate the development reaction. The inhibitory activities of compounds are measured according to the manufactures protocol. Briefly, decreasing concentrations of test compounds or the known ROCK inhibitor Y-27963, are added, from 10 uM to 2.56×10^−5 uM to reaction buffer containing 50 mM HEPES pH 7.5, 10 mM MgCl2, 5 mM EGTA, and 0.05% Brij-35 and of ROCK1 at 0.18 ug/mL or ROCK2 at 0.8 ug/mL in assay dilution buffer. […] STOP reagent is then added and the reaction and immediately the coumarin and fluorescein emission signals are read on a Tecan Infinite M1000 fluorescence plate reader (excitation: 400 nm; emission 445 and 520 nm, respectively). By comparing the emission ratios of the test samples against control samples, percent phosphorylation values are calculated and the concentration of inhibitor that produces 1/2 inhibition of kinase activity (IC50) is determined using Prism.

ROCK1 = ROCK1 (Homo sapiens (Human), UniProt Q13464); details: read-out: ROCK1 IC50; Z′-LYTE, 5 uM ATP
Excerpt: as §1

human CD4+ T cells [1] = test: cytokine secretion by anti-CD3/CD28 stimulated CD4+ T cells in vitro; format: cell-based; details: anti-CD3/CD28 stimulation
STAT3 phosphorylation = STAT3 phosphorylation in T cells; format: cell-based, human
human Tregs = test: Treg suppression of IL-17 secretion in CD4+CD25- effector T cells; format: cell-based; details: Tregs treated 3 hours; Treg:Teff 1:4 and 1:9
human CD4+ T cells [2] = test: Foxp3+ cells among CD4+ T cells after Th17 skewing activation; format: cell-based; details: 5 days Th17 skewing activation
human CD4+ T cells [3] = test: T cell proliferation in response to TCR stimulation in vitro; format: cell-based
[4] = system: CD4+ T cells from RA patients; test: cytokine secretion ex vivo by CD3/CD28 stimulated CD4+ T cells from RA patients; format: cell-based, human
[5] = system: TGF-β-induced phosphorylation; test: TGF-β-induced phosphorylation of STAT3, MLC and SMAD2/3 in Tregs; format: cell-based, human
[6] = RA patients, ex vivo, TCR stimulation

Sequence of ROCK1 (Q13464 1-535 limits assumed): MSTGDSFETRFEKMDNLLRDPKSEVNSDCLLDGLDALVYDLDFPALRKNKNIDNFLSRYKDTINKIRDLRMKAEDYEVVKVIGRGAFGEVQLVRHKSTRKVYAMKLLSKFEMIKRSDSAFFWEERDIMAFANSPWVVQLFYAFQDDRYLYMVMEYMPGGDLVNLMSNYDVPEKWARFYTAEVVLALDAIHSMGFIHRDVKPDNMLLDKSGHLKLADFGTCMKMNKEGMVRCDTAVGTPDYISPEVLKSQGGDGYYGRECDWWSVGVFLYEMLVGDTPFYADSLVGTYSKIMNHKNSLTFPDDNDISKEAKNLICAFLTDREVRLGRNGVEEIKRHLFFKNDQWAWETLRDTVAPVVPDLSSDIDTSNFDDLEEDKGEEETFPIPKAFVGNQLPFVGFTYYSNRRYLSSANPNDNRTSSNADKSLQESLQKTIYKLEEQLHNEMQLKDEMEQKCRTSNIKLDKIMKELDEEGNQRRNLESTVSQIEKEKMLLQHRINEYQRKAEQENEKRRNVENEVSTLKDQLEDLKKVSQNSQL
Sequence of ROCK2 (O75116 5-554 limits assumed): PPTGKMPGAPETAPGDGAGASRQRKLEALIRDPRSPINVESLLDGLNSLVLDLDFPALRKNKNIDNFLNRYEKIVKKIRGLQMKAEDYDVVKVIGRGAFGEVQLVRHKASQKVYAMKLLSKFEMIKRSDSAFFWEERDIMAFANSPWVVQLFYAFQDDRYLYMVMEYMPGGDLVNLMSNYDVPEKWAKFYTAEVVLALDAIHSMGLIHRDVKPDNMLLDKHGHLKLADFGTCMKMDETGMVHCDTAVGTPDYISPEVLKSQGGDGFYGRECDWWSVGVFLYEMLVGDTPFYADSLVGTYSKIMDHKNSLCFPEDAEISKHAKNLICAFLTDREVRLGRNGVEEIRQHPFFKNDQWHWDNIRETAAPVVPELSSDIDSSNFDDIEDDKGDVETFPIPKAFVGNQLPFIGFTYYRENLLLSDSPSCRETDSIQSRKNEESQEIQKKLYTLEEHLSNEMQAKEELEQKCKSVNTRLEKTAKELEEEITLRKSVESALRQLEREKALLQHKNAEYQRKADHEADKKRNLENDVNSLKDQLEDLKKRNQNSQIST

SMILES | IC50 (ROCK2) [µM] | IC50 (ROCK1) [µM] | inhibition of IFN-γ secretion (human CD4+ T cells [1]) | inhibition of IL-2 secretion (human CD4+ T cells [1]) | IL-17 secretion (human CD4+ T cells [1]; dose-dependent) | IL-21 secretion (human CD4+ T cells [1]; dose-dependent) | phosphorylation of STAT3 (STAT3 phosphorylation; T cells, two experimental designs) | STAT3 phosphorylation (STAT3 phosphorylation; Th17-skewing conditions 5 days, then treatment 3 hours) | ability of Tregs to suppress IL-17 secretion in CD4+CD25- effector T cells (human Tregs) | percentage of Foxp3+ cells (human CD4+ T cells [2]) | ability to proliferate in response to TCR stimulation (human CD4+ T cells [3]) | frequencies of IL-17 and IFN-γ-producing cells ([4]; 2 RA patients, intracellular staining) | secretion of IFN-γ [4, 6] | secretion of IL-17 [4, 6] | secretion of IL-21 [4, 6] | phosphorylation of SMAD2/3 [5] | TGF-β-induced MLC phosphorylation ([5]; dose-dependent) | TGF-β-induced STAT3 phosphorylation ([5]; dose-dependent)
CC(N)c1cccc(-c2nccc(Nc3ccc4[nH]ncc4c3)n2)c1 (centres unmarked) [Example 147, N-(2-(3-(1-aminoethyl)phenyl)pyrimidin-4-yl)-1H-indazol-5-amine] | > 5.5 | > 2 |  |  |  |  |  |  |  |  |  |  |  |  |  |  |  | 
CC(C)NC(=O)COc1cccc(-c2nc(Nc3ccc4[nH]ncc4c3)cc(C(F)(F)F)n2)c1 [Example 169] | > 10 | > 10 |  |  |  |  |  |  |  |  |  |  |  |  |  |  |  | 
CC(C)NC(=O)COc1cccc(-c2nc(Nc3ccc4[nH]ncc4c3)c3ccccc3n2)c1 [KD025] |  |  | less robust and significant only at high dose (10 μM) | observed only at the highest concentration (10 μM) | inhibits; also recorded: significantly inhibited | inhibits; also recorded: significantly inhibited | inhibits; also recorded: significantly down-regulates | reduced | significantly increased | significantly increased | inhibits; also recorded: down-regulated | significantly reduced | inhibits; also recorded: significantly down-regulated | inhibits; also recorded: significantly down-regulated | inhibits; also recorded: significantly down-regulated | remains intact | down-regulates | down-regulates
